# Measured values: ChEMBL document CHEMBL2073988, “Secretory transport of methylprednisolone possibly mediated by P-glycoprotein in Caco-2 cells” (Biol Pharm Bull, 2002)
# Target: ATP-dependent translocase ABCB1 (Homo sapiens, UniProt P08183)
# Test: TP_TRANSPORTER: transepithelial transport (basal to apical), inhibited by Verapamil in Caco-2 cells
# Assay type: functional, cell-based
# Chain of ATP-dependent translocase ABCB1 (P08183 whole entry): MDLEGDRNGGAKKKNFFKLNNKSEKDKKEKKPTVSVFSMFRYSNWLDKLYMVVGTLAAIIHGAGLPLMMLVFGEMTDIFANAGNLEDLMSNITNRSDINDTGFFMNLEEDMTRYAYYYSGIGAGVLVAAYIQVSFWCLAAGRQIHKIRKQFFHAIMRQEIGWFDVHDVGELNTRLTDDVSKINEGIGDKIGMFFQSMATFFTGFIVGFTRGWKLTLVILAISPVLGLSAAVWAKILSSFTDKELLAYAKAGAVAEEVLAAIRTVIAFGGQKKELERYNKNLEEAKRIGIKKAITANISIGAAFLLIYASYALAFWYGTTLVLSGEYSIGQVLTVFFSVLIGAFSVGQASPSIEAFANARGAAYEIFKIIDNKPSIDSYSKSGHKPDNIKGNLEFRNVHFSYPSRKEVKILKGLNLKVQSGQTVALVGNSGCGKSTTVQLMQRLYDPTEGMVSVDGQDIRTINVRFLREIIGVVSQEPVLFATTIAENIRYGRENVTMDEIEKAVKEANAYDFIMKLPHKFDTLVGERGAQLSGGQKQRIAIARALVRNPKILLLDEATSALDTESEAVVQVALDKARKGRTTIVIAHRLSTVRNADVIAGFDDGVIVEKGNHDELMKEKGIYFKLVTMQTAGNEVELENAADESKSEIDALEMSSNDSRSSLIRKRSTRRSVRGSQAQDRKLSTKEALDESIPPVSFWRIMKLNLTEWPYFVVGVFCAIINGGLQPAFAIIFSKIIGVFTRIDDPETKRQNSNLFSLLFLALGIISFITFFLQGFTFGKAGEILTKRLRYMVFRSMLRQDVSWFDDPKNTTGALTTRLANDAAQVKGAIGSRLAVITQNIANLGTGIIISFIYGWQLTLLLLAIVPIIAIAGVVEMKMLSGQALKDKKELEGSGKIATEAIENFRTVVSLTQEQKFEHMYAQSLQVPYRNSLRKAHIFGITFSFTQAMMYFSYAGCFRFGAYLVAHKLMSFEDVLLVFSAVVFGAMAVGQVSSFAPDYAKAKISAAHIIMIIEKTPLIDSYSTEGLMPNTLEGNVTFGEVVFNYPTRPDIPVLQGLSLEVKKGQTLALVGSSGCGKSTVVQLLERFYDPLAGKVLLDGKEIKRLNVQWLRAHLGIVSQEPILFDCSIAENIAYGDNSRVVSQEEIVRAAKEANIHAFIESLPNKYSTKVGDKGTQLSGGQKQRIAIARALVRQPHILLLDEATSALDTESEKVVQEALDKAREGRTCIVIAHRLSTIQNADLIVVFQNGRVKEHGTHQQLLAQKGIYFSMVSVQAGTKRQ
compound,measurement,value
C[C@H]1C[C@@H]2[C@H]([C@@H](O)C[C@@]3(C)[C@H]2CC[C@]3(O)C(=O)CO)[C@@]2(C)C=CC(=O)C=C12 [METHYLPREDNISOLONE],Activity,substrate [+]
